Laboratory results from patent US10570180B2, “Anti-bacterial agents and their use in therapy” (priority 2015, dated 2020).
≈ marks a conversion by molar mass, not a printed value. Read-outs that look alike come from different tables or passages of the source.

Tests used:
E. faecium CTC 492 = test: MIC assay of antibiotics with ATX-101; format: cell-based, Enterococcus faecium; details: for MIC: Enterococcus faecium, CTC492, E. faecium CTC 492, read-out: Est MIC
Description: (§1) The minimum inhibitory concentration (MIC) of ATX-101 (SEQ ID NO: 1289) was determined for various gram negative and gram positive bacteria. The bacteria, Pseudomonas aeruginosa ATCC 15692, Acinetobacter baumenni ATCC 19600, Escherichia coli ATCC 25922, Pseudomonas aeruginosa TO-5A (clinical isolate), Enterococous faecium CCUG 37832, Enterococcus faecium CTC 492, Micrococcus luteus ATCC 9341 and Escherichie coli NCIMB 12210 were grown in the presence of various concentrations of ATX-101 and/or antibiotic.
(§2) ATX-101 was dissolved in Mueller-Hinton broth to 1.25 times of the desired assay concentration. Antibiotics were dissolved in Mueller-Hinton broth and Mueller-Hinton broth with ATX-101 at a concentration of 1.25 times the highest desired assay concentrations. Antibiotics were pharmaceutical grade purchased from Sigma-Aldrich.
(§3) Two-fold serial dilutions of antibiotics were made in Mueller-Hinton with different concentrations of ATX-101, and the solutions were placed in four parallel wells is Nunc 384-well micro plates (30 μl per well in Nunc 242757 microplates). A group of 8 wells with no addition of antibiotics for each ATX-101 concentration was included on each micro plate as a growth reference.
(§4) At the day of analysis, overnight TSB cultures inoculated from freeze stocks (6 ml in 50 ml tube tilted to 45-degrees angle, 200 rpm, 2.5 cm amplitude, 37° C.) were diluted in TSB until the OD800 was 0.10, and further diluted 1:40 in Mueller-Hinton broth. Each well in the 384-well assay plates was inoculated with 7.5 μl of the diluted culture, giving the same dilution of the culture in the assay cultures. The microplates were placed in plastic bags and incubated without shaking at 37° C. The optical density at 600 nm in the microwells was measured after approximately 19 hours of incubation, and the relative growth yield was calculated based on the growth in the reference groups. The MIC value was set to the highest concentration giving less than 30% growth in all 4 parallel wells within the sample groups. The microplates were further incubated for 6 hours, and optical density in the cultures was measured once more for confirmation of the estimated MIC-values.
(§5) The APIM peptide was dissolved in Mueller-Hinton broth to 1.25 times of the desired assay concentration. Antibiotics were dissolved in Mueller-Hinton broth and Mueller-Hinton broth with APIM at a concentration of 1.25 times the highest desired assay concentrations. Antibiotics were pharmaceutical grade purchased from Sigma-Aldrich.
(§6) Two-fold serial dilutions of antibiotics were made in Mueller-Hinton with different concentrations of APIM, and the solutions were placed in four parallel wells in Nunc 384-well micro plates (30 μl per well in Nunc 242757 microplates). A group of 8 wells with no addition of antibiotics for each APIM concentration was included on each micro plate as growth reference.
as §4, with “inoculated” for “inoculated from”, “OD600” for “OD800”, “culture.” for “culture, giving the same dilution of the culture in the assay cultures.”, “yield in each well” for “yield”

[1] = system: Staphylococcus aureus MRSA 1040s; test: microbe, parasite or virus in culture; format: cell-based; details: for MIC: Staphylococcus aureus, Table 6, alone, MRSA 1040s, read-out: MIC; for MIC when combined with 10 μg/ml of ATX-101: Table 6, MRSA 1040s
Description: as §2, §3, §4, §5, §6
as §4, with “inoculated” for “inoculated from”, “OD600” for “OD800”, “culture.” for “culture, giving the same dilution of the culture in the assay cultures.”, “yield in each well” for “yield”
In view of the anti-bacterial effect of ATX-101 on strains of MRSA, the MIC for a variety of APIM variants was determined using Staphylococcus aureus MRSA 1040s. […] A cell penetrating peptide (SEQ ID NO: 337) present in all of the APIM peptides, was used as a negative control.
Next, the effect of APIM peptides on the MIC of antibiotics was determined using Staphylococcus aureus MRSA 1040s.
The MICS for various APIM peptides were determined for various bacteria, as described above.

A. baumanii ATCC 19606 = test: MIC assay of antibiotics with ATX-101; format: cell-based; details: for MIC: Acinetobacter baumannii; for Est MIC: A. baumanii ATCC 19606
Description: as §5, §6
as §4, with “inoculated” for “inoculated from”, “OD600” for “OD800”, “culture.” for “culture, giving the same dilution of the culture in the assay cultures.”, “yield in each well” for “yield”

E. coli NCIMB 12210 = test: MIC assay of antibiotics with ATX-101; format: cell-based, Escherichia coli; details: Escherichia coli, NCIMB12210, E. coli NCIMB 12210, read-out: Est MIC
Description: as §1, §2, §3, §4, §5, §6
as §4, with “inoculated” for “inoculated from”, “OD600” for “OD800”, “culture.” for “culture, giving the same dilution of the culture in the assay cultures.”, “yield in each well” for “yield”

[2] = ATCC19606, A. baumanii ATCC 19606, APIM (ATX-101) conc. 2 μg/ml, read-out: Est MIC
[3] = ATCC19606, A. baumanii ATCC 19606, APIM (ATX-101) conc. 4 μg/ml, read-out: Est MIC
[4] = ATCC19606, A. baumanii ATCC 19606, APIM conc. 0 μg/ml, read-out: Est MIC
[5] = ATCC19606, A. baumanii ATCC 19606, APIM (ATX-101) conc. 8 μg/ml, read-out: Est MIC

| Compound | MIC (E. faecium CTC 492; APIM (ATX-101) conc. 6.5 μg/ml) [µg/mL] | MIC (E. faecium CTC 492; APIM (ATX-101) conc. 13 μg/ml) [µg/mL] | MIC (E. faecium CTC 492; APIM conc. 0 μg/ml) [µg/mL] | MIC (A. baumanii ATCC 19606; [2]) [µg/mL] | MIC (A. baumanii ATCC 19606; [3]) [µg/mL] | MIC (A. baumanii ATCC 19606; [4]) [µg/mL] | also measured |
| --- | --- | --- | --- | --- | --- | --- | --- |
| CC1(C)S[C@@H]2[C@H](NC(=O)[C@H](N)c3ccccc3)C(=O)N2[C@H]1C(=O)O [Ampicillin] | 0.5 (≈ 1.43 µM) | 0.5 (≈ 1.43 µM) | 1 (≈ 2.86 µM) | – | – | – | ampicillin concentration sufficient to inhibit bacterial growth (E. faecium CTC 492; combined with 6.5 μg/ml or 13 μg/ml ATX-101, FIG. 3): about 0.5 μg/ml; ampicillin concentration required for the same level of inhibition (E. faecium CTC 492; without ATX-101, FIG. 3): 1 µg/mL |
| CC[C@H]1OC(=O)[C@H](C)[C@@H](O[C@H]2C[C@@](C)(OC)[C@@H](O)[C@H](C)O2)[C@H](C)[C@@H](O[C@@H]2O[C@H](C)C[C@H](N(C)C)[C@H]2O)[C@](C)(O)C[C@@H](C)C(=O)[C@H](C)[C@@H](O)[C@]1(C)O [Erythromycin] | 4 (≈ 5.45 µM) | 1 (≈ 1.36 µM) | 4 (≈ 5.45 µM) | – | – | – | MIC [1]: > 1030 µg/mL; MIC when combined with 10 μg/ml of ATX-101 [1]: 2 µg/mL |
| NC[C@H]1O[C@H](O[C@H]2[C@H](O)[C@@H](O[C@H]3O[C@H](CO)[C@@H](O)[C@H](N)[C@H]3O)[C@H](N)C[C@@H]2N)[C@H](N)C[C@@H]1O [Tobramycin] | 64 (≈ 137 µM) | 32 (≈ 68.4 µM) | 64 (≈ 137 µM) | – | – | – | – |
| C[C@@H](O)[C@H]1C(=O)N2C(C(=O)O)=C(SCCN=CN)C[C@H]12 [Imipenem] | 2 (≈ 6.68 µM) | 2 (≈ 6.68 µM) | 4 (≈ 13.4 µM) | 0.125 (≈ 0.418 µM) | 0.125 (≈ 0.418 µM) | 0.25 (≈ 0.835 µM) | – |
| CC[C@@]1([C@@H]2O[C@@H]([C@H]3O[C@@](O)(CO)[C@H](C)C[C@@H]3C)C[C@@H]2C)CC[C@H]([C@]2(C)CC[C@]3(C[C@H](O)[C@@H](C)[C@@H]([C@@H](C)[C@@H](OC)[C@H](C)C(=O)O)O3)O2)O1 [Monensin] | 0.5 (≈ 0.745 µM) | 0.5 (≈ 0.745 µM) | 1 (≈ 1.49 µM) | 64 (≈ 95.4 µM) | 64 (≈ 95.4 µM) | 64 (≈ 95.4 µM) | MIC (A. baumanii ATCC 19606; [5]): 32 µg/mL (≈ 47.7 µM) |
| O=C(N[C@H](CO)[C@H](O)c1ccc([N+](=O)[O-])cc1)C(Cl)Cl [Chloramphenicol] | 2 (≈ 6.19 µM) | 1 (≈ 3.09 µM) | 2 (≈ 6.19 µM) | – | – | – | MIC (E. coli NCIMB 12210; APIM (ATX-101) conc. 2 μg/ml): 2 µg/mL (≈ 6.19 µM); MIC (E. coli NCIMB 12210; APIM (ATX-101) conc. 4 μg/ml): 2 µg/mL (≈ 6.19 µM); MIC (E. coli NCIMB 12210; APIM (ATX-101) conc. 8 μg/ml): 1 µg/mL (≈ 3.09 µM); MIC (E. coli NCIMB 12210; APIM conc. 0 μg/ml): 2 µg/mL (≈ 6.19 µM) |
| CO[C@@H]1[C@@H](OC(N)=O)[C@@H](O)[C@H](Oc2ccc3c(O)c(NC(=O)c4ccc(O)c(CC=C(C)C)c4)c(=O)oc3c2C)OC1(C)C [Novobiocin] | – | – | – | 8 (≈ 13.1 µM) | 8 (≈ 13.1 µM) | 8 (≈ 13.1 µM) | MIC (E. coli NCIMB 12210; APIM (ATX-101) conc. 2 μg/ml): 32 µg/mL (≈ 52.2 µM); MIC (E. coli NCIMB 12210; APIM (ATX-101) conc. 4 μg/ml): 8 µg/mL (≈ 13.1 µM); MIC (E. coli NCIMB 12210; APIM (ATX-101) conc. 8 μg/ml): 4 µg/mL (≈ 6.53 µM); MIC (E. coli NCIMB 12210; APIM conc. 0 μg/ml): 64 µg/mL (≈ 104 µM); MIC (A. baumanii ATCC 19606; [5]): 2 µg/mL (≈ 3.26 µM) |
| CO[C@H]1/C=C/O[C@@]2(C)Oc3c(C)c(O)c4c(O)c(c(/C=N/N5CCN(C)CC5)c(O)c4c3C2=O)NC(=O)/C(C)=C\C=C\[C@H](C)[C@H](O)[C@@H](C)[C@@H](O)[C@@H](C)[C@H](OC(C)=O)[C@@H]1C [Rifampicin] | 32 (≈ 38.9 µM) | 4 (≈ 4.86 µM) | 16 (≈ 19.4 µM) | 2 (≈ 2.43 µM) | 1 (≈ 1.22 µM) | 2 (≈ 2.43 µM) | MIC (E. faecium CTC 492; APIM (ATX-101) conc. 20 μg/ml): 8 µg/mL (≈ 9.72 µM); MIC (A. baumanii ATCC 19606; [5]): 1 µg/mL (≈ 1.22 µM) |
| Gentamicin | – | – | – | – | – | – | Est MIC (A. baumanii ATCC 19606; APIM (ATX-101) conc. 2 μg/ml): 16 µg/mL; Est MIC (A. baumanii ATCC 19606; APIM (ATX-101) conc. 4 μg/ml): 8 µg/mL; Est MIC (A. baumanii ATCC 19606; APIM conc. 0 μg/ml): 16 µg/mL |
| CC[C@H]1OC(=O)[C@H](C)[C@@H](O[C@H]2C[C@@](C)(OC)[C@@H](O)[C@H](C)O2)[C@H](C)[C@@H](O[C@@H]2O[C@H](C)C[C@H](N(C)C)[C@H]2O)[C@](C)(O)C[C@@H](C)CN(C)[C@H](C)[C@@H](O)[C@]1(C)O [Azithromycin, reference compound] | – | – | – | – | – | – | MIC [1]: > 1030 µg/mL; MIC when combined with 10 μg/ml of ATX-101 [1]: 8 µg/mL |
| CN[C@H](CC(C)C)C(=O)N[C@H]1C(=O)N[C@@H](CC(N)=O)C(=O)N[C@H]2C(=O)N[C@H]3C(=O)N[C@H](C(=O)N[C@H](C(=O)O)c4cc(O)cc(O)c4-c4cc3ccc4O)[C@H](O)c3ccc(c(Cl)c3)Oc3cc2cc(c3O[C@@H]2O[C@H](CO)[C@@H](O)[C@H](O)[C@H]2O[C@H]2C[C@](C)(N)[C@H](O)[C@H](C)O2)Oc2ccc(cc2Cl)[C@H]1O [Vancomycin] | – | – | – | – | – | – | MIC (A. baumanii ATCC 19606; ATCC19606, read-out: Est MIC, A. baumanii ATCC 19606, APIM (ATX-101) conc. 2 μg/ml): 32 µg/mL (≈ 22.1 µM); MIC (A. baumanii ATCC 19606; ATCC19606, read-out: Est MIC, A. baumanii ATCC 19606, APIM (ATX-101) conc. 4 μg/ml): 16 µg/mL (≈ 11 µM); MIC (A. baumanii ATCC 19606; ATCC19606, read-out: Est MIC, A. baumanii ATCC 19606, APIM conc. 0 μg/ml): 32 µg/mL (≈ 22.1 µM) |
| CN[C@@H]1[C@@H](O[C@H]2O[C@H](CO)[C@@H](N)[C@H](O)[C@H]2O)OC2C[C@@H](N)[C@@H](O[C@H]3[C@H](O)[C@@H](O)[C@H](N)C[C@@H]3N)OC2[C@@H]1O (stereo partly drawn) [Apramycin] | 64 (≈ 119 µM) | 32 (≈ 59.3 µM) | 64 (≈ 119 µM) | – | – | – | – |
